Values of other authors in US9662346B2, “Method of treating hyperesthesia, paresthesia, dolor, and pruritus caused by insect stings or noxious weeds or plants using avermectin compound” (priority 2007, dated 2017).

How the values were obtained:
head lice = details: single topical application
[1] = oral dosage of a moderate ivermectin concentration

**Q.** Which “effect on head lice” value (head lice) does the source give for ivermectin here?
**A.** curative effect

**Q.** And the safety in human [1]?
**A.** safe in human, without serious adverse side effects
